Measured values published in US20200055839A1 (priority 2017, published 2020).
pEC50: −log10 of the molar value.

What follows are compounds tested on NL-RLuc virus (assay: Inhibition of HIV replication (NL-RLuc virus, luciferase readout in MT-2 cells)). Details: Human immunodeficiency virus 1, MT2, 120 h, MT-2 cells infected with NL-RLuc virus, 5 days of incubation, 10% FBS, at least 2 experiments.
Assay type: cell-based
Outline: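 EC50 derived via median effect equation from at least 2 experiments, using luciferase expression as virus-growth readout. Replication-competent NL-RLuc reporter virus (nef partly replaced by Renilla luciferase) infected MT-2 cells with serial compound dilutions; 5-day incubation in RPMI 1640 plus 10% FBS.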

SMILES | pEC50
Cc1nc(NC2CCN(S(C)(=O)=O)CC2)c(-c2ccc(OCCc3ccc(F)cc3)cc2)c(N2CCC(C)(C)CC2)c1[C@H](OC(C)(C)C)C(=O)O [Example 99, (S)-2-(tert-Butoxy)-2-(4-(4,4-dimethylpiperidin-1-yl)-5-(4-(4-fluorophenethoxy)phenyl)-2-methyl-6-((1-(methylsulfonyl)piperidin-4-yl)amino)pyridin-3-yl)acetic acid] | 9.22
CC(=O)N1CCC(Nc2nc(C)c([C@H](OC(C)(C)C)C(=O)O)c(N3CCC(C)(C)CC3)c2-c2ccc(OCCc3ccc(F)cc3)cc2)CC1 [Example 100, (S)-2-(6-((1-Acetylpiperidin-4-yl)amino)-4-(4,4-dimethylpiperidin-1-yl)-5-(4-(4-fluorophenethoxy)phenyl)-2-methylpyridin-3-yl)-2-(tert-butoxy)acetic acid] | 9.30
Cc1nc(Nc2ccc(C(=O)O)cn2)c(-c2ccc(OCCc3ccc(F)cc3)cc2)c(N2CCC(C)(C)CC2)c1[C@H](OC(C)(C)C)C(=O)O [Example 101, (S)-6-((5-(tert-Butoxy(carboxy)methyl)-4-(4,4-dimethylpiperidin-1-yl)-3-(4-(4-fluorophenethoxy)phenyl)-6-methylpyridin-2-yl)amino)nicotinic acid] | 8.00
Cc1nc(Nc2ccnc(C(=O)O)c2)c(-c2ccc(OCCc3ccc(F)cc3)cc2)c(N2CCC(C)(C)CC2)c1[C@H](OC(C)(C)C)C(=O)O [Example 102, (S)-4-((5-(tert-Butoxy(carboxy)methyl)-4-(4,4-dimethylpiperidin-1-yl)-3-(4-(4-fluorophenethoxy)phenyl)-6-methylpyridin-2-yl)amino)picolinic acid] | 7.30
Cc1nc(OCCO)c(-c2ccc(OCCc3ccc(F)cc3)cc2)c(N2CCC(C)(C)CC2)c1[C@H](OC(C)(C)C)C(=O)O [Example 103, (S)-2-(tert-Butoxy)-2-(4-(4,4-dimethylpiperidin-1-yl)-5-(4-(4-fluorophenethoxy)phenyl)-6-(2-hydroxyethoxy)-2-methylpyridin-3-yl)acetic acid] | 8.70
Cc1nc(Nc2ccncc2)c(-c2ccc(OCCc3ccc(F)cc3)c(F)c2)c(N2CCC(C)(C)CC2)c1[C@H](OC(C)(C)C)C(=O)O [Example 104, (S)-2-(tert-Butoxy)-2-(4-(4,4-dimethylpiperidin-1-yl)-5-(3-fluoro-4-(4-fluorophenethoxy)phenyl)-2-methyl-6-(pyridin-4-ylamino)pyridin-3-yl)acetic acid] | 9.15
Cc1nc(Nc2ncccn2)c(-c2ccc(OCCc3ccc(F)cc3)c(F)c2)c(N2CCC(C)(C)CC2)c1[C@H](OC(C)(C)C)C(=O)O [Example 105, (S)-2-(tert-Butoxy)-2-(4-(4,4-dimethylpiperidin-1-yl)-5-(3-fluoro-4-(4-fluorophenethoxy)phenyl)-2-methyl-6-(pyrimidin-2-ylamino)pyridin-3-yl)acetic acid] | 8.40
Cc1nc(NC2CC2)c(-c2ccc(OCCc3ccc(F)cc3)cc2)c(N2CCC(C)(C)CC2)c1[C@H](OC(C)(C)C)C(=O)O [Example 106, (S)-2-(tert-Butoxy)-2-(6-(cyclopropylamino)-4-(4,4-dimethylpiperidin-1-yl)-5-(4-(4-fluorophenethoxy)phenyl)-2-methylpyridin-3-yl)acetic acid] | 9.00
CNc1nc(C)c([C@H](OC(C)(C)C)C(=O)O)c(N2CCC(C)(C)CC2)c1-c1ccc(OCCc2ccc(F)cc2)c(F)c1 [Example 108, (S)-2-(tert-Butoxy)-2-(4-(4,4-dimethylpiperidin-1-yl)-5-(3-fluoro-4-(4-fluorophenethoxy)phenyl)-2-methyl-6-(methylamino)pyridin-3-yl)acetic acid] | 8.52
Cc1nc(Nc2ccc(C#N)cn2)c(-c2ccc(OCCc3ccc(F)cc3)cc2)c(N2CCC(C)(C)CC2)c1[C@H](OC(C)(C)C)C(=O)O [Example 109, (S)-2-(tert-Butoxy)-2-(6-((5-cyanopyridin-2-yl)amino)-4-(4,4-dimethylpiperidin-1-yl)-5-(4-(4-fluorophenethoxy)phenyl)-2-methylpyridin-3-yl)acetic acid] | 7.89
Cc1ncc(-c2ccc(NCCc3ccc(F)cc3)nc2)c(N2CCC(C)(C)CC2)c1[C@H](OC(C)(C)C)C(=O)O [Example 110, (S)-2-(tert-Butoxy)-2-(4-(4,4-dimethylpiperidin-1-yl)-6′-((4-fluorophenethyl)amino)-6-methyl-[3, 3′-bipyridin]-5-yl)acetic acid] | 8.70
Cc1ncc(-c2ccc(N(C)C)nc2)c(N2CCC(C)(C)CC2)c1[C@H](OC(C)(C)C)C(=O)O [Example 111, (S)-2-(tert-Butoxy)-2-(6′-(dimethylamino)-4-(4,4-dimethylpiperidin-1-yl)-6-methyl-[3, 3′-bipyridin]-5-yl)acetic acid] | 8.70
CCOc1ccc(-c2cnc(C)c([C@H](OC(C)(C)C)C(=O)O)c2N2CCC(C)(C)CC2)cn1 [Example 112, (S)-2-(tert-Butoxy)-2-(4-(4,4-dimethylpiperidin-1-yl)-6′-ethoxy-6-methyl-[3, 3′-bipyridin]-5-yl)acetic acid] | 8.30
Cc1nc(N)c(-c2cnc(NCCc3ccc(F)cc3)c(F)c2)c(N2CCC(C)(C)CC2)c1[C@H](OC(C)(C)C)C(=O)O [Example 113, (S)-2-(2-Amino-4-(4,4-dimethylpiperidin-1-yl)-5′-fluoro-6′-((4-fluorophenethyl)amino)-6-methyl-[3, 3′-bipyridin]-5-yl)-2-(tert-butoxy)acetic acid] | 8.52
Cc1ncc(-c2cnc(N(C)C)c(F)c2)c(N2CCC(C)(C)CC2)c1[C@H](OC(C)(C)C)C(=O)O [Example 114, (S)-2-(tert-Butoxy)-2-(6′-(dimethylamino)-4-(4,4-dimethylpiperidin-1-yl)-5′-fluoro-6-methyl-[3,3′-bipyridin]-5-yl)acetic acid] | 7.62
Cc1nc(N)c(-c2cnc(OCCc3ccc(F)cc3)c(F)c2)c(N2CCC(C)(C)CC2)c1[C@H](OC(C)(C)C)C(=O)O [Example 115, (S)-2-(2-Amino-4-(4,4-dimethylpiperidin-1-yl)-5′-fluoro-6′-(4-fluorophenethoxy)-6-methyl-[3, 3′-bipyridin]-5-yl)-2-(tert-butoxy)acetic acid] | 9.00
Cc1nc(N)c(-c2cnc(OCCc3cccc(F)c3)c(F)c2)c(N2CCC(C)(C)CC2)c1[C@H](OC(C)(C)C)C(=O)O [Example 116, (S)-2-(2-Amino-4-(4,4-dimethylpiperidin-1-yl)-5′-fluoro-6′-(3-fluorophenethoxy)-6-methyl-[3, 3′-bipyridin]-5-yl)-2-(tert-butoxy)acetic acid] | 9.00
Cc1nc(N)c(-c2cnc(OCCc3ccccc3F)c(F)c2)c(N2CCC(C)(C)CC2)c1[C@H](OC(C)(C)C)C(=O)O [Example 117, (S)-2-(2-Amino-4-(4,4-dimethylpiperidin-1-yl)-5′-fluoro-6′-(2-fluorophenethoxy)-6-methyl-[3, 3′-bipyridin]-5-yl)-2-(tert-butoxy)acetic acid] | 9.00
Cc1ncc(-c2cnc(OCCc3ccc(F)cc3)c(F)c2)c(N2CCC(C)(C)CC2)c1[C@H](OC(C)(C)C)C(=O)O [Example 118, (S)-2-(tert-Butoxy)-2-(4-(4,4-dimethylpiperidin-1-yl)-5′-fluoro-6′-(4-fluorophenethoxy)-6-methyl-[3, 3′-bipyridin]-5-yl)acetic acid] | 9.00
Cc1ncc(-c2cnc(OCCc3cccc(F)c3)c(F)c2)c(N2CCC(C)(C)CC2)c1[C@H](OC(C)(C)C)C(=O)O [Example 119, (S)-2-(tert-Butoxy)-2-(4-(4,4-dimethylpiperidin-1-yl)-5′-fluoro-6′-(3-fluorophenethoxy)-6-methyl-[3, 3′-bipyridin]-5-yl)acetic acid] | 9.00
Cc1ncc(-c2cnc(OCCc3ccccc3F)c(F)c2)c(N2CCC(C)(C)CC2)c1[C@H](OC(C)(C)C)C(=O)O [Example 120, (S)-2-(tert-Butoxy)-2-(4-(4,4-dimethylpiperidin-1-yl)-5′-fluoro-6′-(2-fluorophenethoxy)-6-methyl-[3, 3′-bipyridin]-5-yl)acetic acid] | 8.70
Cc1ncc(-c2ccc(OCCc3ccc(F)cc3)c(F)c2)c(N2CCC(C)(C)CC2)c1[C@H](OC(C)(C)C)C(=O)O [Example 122, (S)-2-(tert-Butoxy)-2-(4-(4,4-dimethylpiperidin-1-yl)-5-(3-fluoro-4-(4-fluorophenethoxy)phenyl)-2-methylpyridin-3-yl)acetic acid] | 9.00
Cc1ncc(-c2ccc(OCCc3ccc(F)cc3)cc2F)c(N2CCC(C)(C)CC2)c1[C@H](OC(C)(C)C)C(=O)O [Example 123, (S)-2-(tert-Butoxy)-2-(4-(4,4-dimethylpiperidin-1-yl)-5-(2-fluoro-4-(4-fluorophenethoxy)phenyl)-2-methylpyridin-3-yl)acetic acid] | 8.70
Cc1ncc(-c2ccc(OCCc3ccc(F)cc3)c(F)c2F)c(N2CCC(C)(C)CC2)c1[C@H](OC(C)(C)C)C(=O)O [Example 124, (S)-2-(tert-Butoxy)-2-(5-(2,3-difluoro-4-(4-fluorophenethoxy)phenyl)-4-(4,4-dimethylpiperidin-1-yl)-2-methylpyridin-3-yl)acetic acid] | 8.70
Cc1ncc(-c2cc(F)c(OCCc3ccc(F)cc3)cc2F)c(N2CCC(C)(C)CC2)c1[C@H](OC(C)(C)C)C(=O)O [Example 125, (2S)-2-(tert-Butoxy)-2-(5-{2,5-difluoro-4-[2-(4-fluorophenyl)ethoxy]phenyl}-4-(4,4-dimethylpiperidin-1-yl)-2-methylpyridin-3-yl)acetic acid] | 8.52

Same assay, conditions: MT-2 cells infected with NL-RLuc virus, 5 days of incubation, 10% FBS, at least 2 experiments

SMILES | pEC50
Cc1ncc(-c2cnc(NCCc3ccc(F)cc3)c(F)c2)c(N2CCC(C)(C)CC2)c1[C@H](OC(C)(C)C)C(=O)O [Example 121, (S)-2-(tert-Butoxy)-2-(4-(4,4-dimethylpiperidin-1-yl)-5′-fluoro-6′-((4-fluorophenethyl)amino)-6-methyl-[3, 3′-bipyridin]-5-yl)acetic acid] | 8.70
